Tested on: R. pulicis
Type: cell-based, Rickettsia pulicis

For `CC[C@H]1OC(=O)[C@H](C)[C@@H](O[C@H]2C[C@@](C)(OC)[C@@H](O)[C@H](C)O2)[C@H](C)[C@@H](O[C@@H]2O[C@H](C)C[C@H](N(C)C)[C@H]2O)[C@](C)(O)C[C@@H](C)C(=O)[C@H](C)[C@@H](O)[C@]1(C)O` [Erythromycin], the “resistance/sensitivity of the isolate to the antibiotic” value was “resistant”.

From patent US20030003508A1 (priority 1999, published 2003)
